In PubChem BioAssay (NCI):
Where “and” joins values, the source holds several entries; their conditions need not be identical. Equal entries are not always repeated.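 In this assay, cells in 96-well plates receive the compound at five concentrations for 48 hours. Endpoints are linearly interpolated between the surrounding concentrations. GI50 is the concentration that inhibits growth by half. Definition used: TGI = concentration required for complete inhibition of growth.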

How the values were obtained:
Test in all cases: NCI-60 cell line screen, 48 h
[1] = test system: KM12 colon
[2] = test system: CCRF-CEM leukemia
[3] = test system: HCT-15 colon
[4] = test system: TK-10 renal
[5] = test system: HCT-116 colon
[6] = test system: MALME-3M melanoma
[7] = test system: UACC-257 melanoma
[8] = test system: UACC-62 melanoma
[9] = test system: NCI-H226 lung
[10] = test system: HCC-2998 colon

COc1cc2c3c(n(CCCBr)c(=O)c2cc1OC)-c1ccc(NC(C)=O)cc1C3=O
GI50 [1]: 7.35 µM
TGI [1]: > 100 µM
GI50 [2]: 1.44 µM
TGI [2]: 19.1 µM
GI50 [3]: 30.8 µM
TGI [3]: > 100 µM
GI50 [4]: 19.7 µM
TGI [4]: > 100 µM
GI50 [5]: 2.58 µM
TGI [5]: 18.1 µM
GI50 [6]: 60.9 µM
TGI [6]: > 100 µM
GI50 [7]: 28.1 µM
TGI [7]: > 100 µM
GI50 [8]: 2.1 µM
TGI [8]: 15.7 µM
GI50 [9]: 5.17 µM
TGI [9]: 57.3 µM
GI50 [10]: 11.9 µM
TGI [10]: 43.9 µM

CCCN(CCCCC(NC(C)=O)C(=O)NCc1ccccc1)C(=O)N(CCCl)N=O (stereo not given)
TGI [1]: > 100 µM
TGI [2]: > 100 µM
TGI [3]: > 100 µM
TGI [4]: > 100 µM
TGI [5]: > 100 µM
TGI [6]: > 100 µM
TGI [7]: > 100 µM
TGI [8]: > 100 µM
TGI [9]: > 100 µM
TGI [10]: > 100 µM

Cc1ccc(N=NC(C(=O)c2ccccc2)C(=O)c2ccccc2)cc1
TGI [1]: > 100 µM
TGI [2]: 69.4 µM
TGI [3]: 43.6 µM
TGI [4]: > 100 µM
TGI [5]: 65.6 µM
TGI [6]: > 100 µM
TGI [7]: > 100 µM
TGI [8]: 60.8 µM
TGI [9]: 40.6 µM
TGI [10]: > 100 µM

CCCCCCCCCCCCCCCCOP(=O)(O)Oc1ccc(/C=C\c2ccc(OP(=O)(O)OCCCCCCCCCCCCCCCC)cc2)cc1
TGI [1]: > 100 µM
TGI [2]: 88.7 µM
TGI [3]: > 100 µM
TGI [4]: 72.4 µM
TGI [5]: > 100 µM
TGI [6]: > 100 µM
TGI [7]: > 100 µM
TGI [8]: > 100 µM
TGI [9]: > 100 µM
TGI [10]: > 100 µM

COc1ccc(-c2cc3c(nn2)-c2ccccc2C3=O)cc1
GI50 [1]: 47.7 µM
TGI [1]: > 100 µM
GI50 [2]: 9.52 µM
TGI [2]: > 100 µM
GI50 [3]: > 100 µM
TGI [3]: > 100 µM
GI50 [4]: > 100 µM
TGI [4]: > 100 µM
GI50 [5]: 70.2 µM
TGI [5]: > 100 µM
GI50 [6]: > 100 µM
TGI [6]: > 100 µM
GI50 [7]: > 100 µM
TGI [7]: > 100 µM
GI50 [8]: > 100 µM
TGI [8]: > 100 µM
GI50 [9]: > 100 µM
TGI [9]: > 100 µM
GI50 [10]: > 100 µM
TGI [10]: > 100 µM

CC(=O)NC(CCCN)C(=O)NCc1ccccc1 (stereo not given)
TGI [1]: > 100 µM
TGI [2]: > 100 µM
TGI [3]: > 100 µM
TGI [4]: > 100 µM
TGI [5]: > 100 µM
TGI [6]: > 100 µM
TGI [7]: > 100 µM
TGI [8]: > 100 µM
TGI [9]: > 100 µM
TGI [10]: > 100 µM

COc1cc(Cc2cc(OC)c(OC)c(OC)c2)ccc1O
TGI [1]: > 100 µM
TGI [2]: > 100 µM
TGI [3]: > 100 µM
TGI [4]: > 100 µM
TGI [5]: > 100 µM
TGI [6]: 12 µM
TGI [7]: > 100 µM
TGI [8]: > 100 µM
TGI [9]: > 100 µM
TGI [10]: > 100 µM

COc1cc(C2c3cc4c(cc3[C@H](OCCN(C)C)[C@@H]3COC(=O)C23)OCO4)cc(OC)c1O (stereo not given in full)
TGI [1]: 8.95 µM
TGI [2]: 1.73 µM
GI50 [3]: 0.344 µM
TGI [3]: > 100 µM
TGI [4]: 17.9 µM
TGI [5]: 7.18 µM
TGI [6]: 1.73 µM
TGI [7]: 11.4 µM
TGI [8]: 0.496 µM
TGI [9]: 0.301 µM
TGI [10]: 2.55 µM

O=C(O)C(Sc1ccc(Cl)cc1)Sc1ccc(Cl)cc1
TGI [1]: > 100 µM
TGI [2]: > 100 µM
TGI [3]: > 100 µM
TGI [4]: > 100 µM
TGI [5]: > 100 µM
TGI [6]: > 100 µM
TGI [7]: > 100 µM
TGI [8]: 72.1 µM
TGI [9]: > 100 µM
TGI [10]: 69.1 µM

COC(=O)c1cc2c(c(C(=O)OC)c1O)C(=O)C=CC2=O
GI50 [1]: > 9.1 µM
TGI [1]: > 58.3 µM
TGI [2]: 4.31 µM
GI50 [3]: > 9.1 µM
TGI [3]: > 49.4 µM
GI50 [4]: > 9.1 µM
TGI [4]: > 54.6 µM
GI50 [5]: 3.49 µM
TGI [5]: > 9.1 µM and 16.9 µM
GI50 [6]: > 9.1 µM
TGI [6]: > 58.4 µM
GI50 [7]: > 9.1 µM
TGI [7]: > 48.7 µM
GI50 [8]: 18 µM
TGI [8]: > 9.1 µM and 33.7 µM
GI50 [9]: 18.5 µM
TGI [9]: > 9.1 µM and 34.7 µM
GI50 [10]: > 9.1 µM
TGI [10]: > 57.4 µM

CCc1cccc(C)c1NC(C)=O
TGI [1]: > 100 µM
TGI [2]: > 100 µM
TGI [3]: > 100 µM
TGI [4]: > 100 µM
TGI [5]: > 100 µM
TGI [6]: > 100 µM
TGI [7]: > 100 µM
TGI [8]: > 100 µM
TGI [9]: > 100 µM
TGI [10]: > 100 µM

Cc1ccc(C(=O)/C=C/c2ccccc2O)c(C)c1
TGI [1]: > 100 µM
TGI [2]: > 100 µM
TGI [3]: > 100 µM
TGI [4]: > 100 µM
TGI [5]: > 100 µM
TGI [6]: > 100 µM
TGI [7]: > 100 µM
TGI [8]: > 100 µM
TGI [9]: > 100 µM
TGI [10]: > 100 µM

COc1cc(Cn2c(-c3ccccc3)cc3c2-c2oncc2CC3)cc(OC)c1OC
GI50 [1]: 0.585 µM
TGI [1]: 22.8 µM
GI50 [2]: 0.857 µM
TGI [2]: > 100 µM
GI50 [3]: 0.64 µM
TGI [3]: > 100 µM
GI50 [4]: 7.7 µM
TGI [4]: > 100 µM
GI50 [5]: 0.464 µM
TGI [5]: 91.7 µM
GI50 [6]: 18.4 µM
TGI [6]: 84.4 µM
GI50 [7]: 20.2 µM
TGI [7]: > 100 µM
GI50 [8]: 0.449 µM
TGI [8]: 77.5 µM
GI50 [9]: 3.76 µM
TGI [9]: > 100 µM
GI50 [10]: 2.21 µM
TGI [10]: > 100 µM

Cc1ccc(NC(=O)C2C(=O)N(c3ccc(C)c(C)c3)C(=O)/C2=N/O)cc1C (stereo not given)
TGI [1]: > 100 µM
TGI [2]: > 100 µM
TGI [3]: > 100 µM
TGI [4]: > 100 µM
TGI [5]: > 100 µM
TGI [6]: > 100 µM
TGI [7]: > 100 µM
TGI [8]: > 100 µM
TGI [9]: > 100 µM
TGI [10]: > 100 µM

COC(=O)C(=O)C(C(=O)C=C(C)C)C(=O)C(=O)Nc1ccc(Cl)cc1C (stereo not given)
TGI [1]: > 100 µM
TGI [2]: > 100 µM
TGI [3]: > 100 µM
TGI [4]: > 100 µM
TGI [5]: > 100 µM
TGI [6]: > 100 µM
TGI [7]: > 100 µM
TGI [8]: > 100 µM
TGI [9]: > 100 µM
TGI [10]: > 100 µM

CN1C(NC(=O)c2ccc(Cl)nc2)=NS(=O)(=O)c2cc(Cl)ccc21
GI50 [1]: > 100 µM
TGI [1]: > 100 µM
GI50 [2]: > 100 µM
TGI [2]: > 100 µM
GI50 [3]: > 100 µM
TGI [3]: > 100 µM
GI50 [4]: > 100 µM
TGI [4]: > 100 µM
GI50 [5]: > 100 µM
TGI [5]: > 100 µM
GI50 [6]: > 100 µM
TGI [6]: > 100 µM
GI50 [7]: > 100 µM
TGI [7]: > 100 µM
GI50 [8]: > 100 µM
TGI [8]: > 100 µM
GI50 [9]: > 100 µM
TGI [9]: > 100 µM
GI50 [10]: > 100 µM
TGI [10]: > 100 µM

CC(C)CSc1nc(Nc2ccccc2)c(C#N)c(-c2ccc(F)cc2)n1
GI50 [1]: 48.2 µM
TGI [1]: > 100 µM
GI50 [2]: 5.53 µM
TGI [2]: > 100 µM
GI50 [3]: 9.06 µM
TGI [3]: > 100 µM
GI50 [4]: 1.61 µM
TGI [4]: 6.33 µM
GI50 [5]: 2.01 µM
TGI [5]: 11.9 µM
GI50 [6]: 2.27 µM
TGI [6]: 10.6 µM
GI50 [7]: 10.3 µM
TGI [7]: 33.3 µM
GI50 [8]: 16.5 µM
TGI [8]: 43.5 µM
GI50 [9]: 3.79 µM
TGI [9]: 20.1 µM
GI50 [10]: 13.1 µM
TGI [10]: > 100 µM
